Data set [1] has as its system Mus musculus. In words: Oral bioavailability in mouse assessed as MPC-3100. The class given is ADME, organism-based. As to conditions: in vivo.
Data set [2] relates to NCI-N87. In words: Antitumor activity against human NCI-N87 cells xenografted in mouse assessed as tumor regression. The class given is functional. (A xenograft is tissue or cells of one species grown in another, often human tumour cells in immunodeficient mice.)
Data set [3] is described as follows: Aqueous solubility of the compound in simulated intestinal fluid at pH 6.5 to 6.8. The class given is physicochemical.
Data set [4] has as its system Mus musculus. In words: Tmax in mouse assessed as MPC-3100 at 265 mg/kg, po administered with 2% CMC by LC-ESI-MS/MS analysis. The class given is ADME, organism-based. As to conditions: in vivo.
Data set [5] is described as follows: Half life in simulated gastric fluid at pH 1.2. The class given is ADME.
A short description of data set [6]: Half life in mouse liver microsomes in absence of NADPH. Type of data set: ADME. For orientation: Liver microsomes are a subcellular fraction often used to study metabolism.
Data set [7] is described as follows: Half life in simulated intestinal fluid at pH 6.8 in presence of pancreatin. The class given is ADME. As to conditions: simulated intestinal fluid with pancreatin.
A short description of data set [8]: Half life in monkey plasma. The class given is ADME, cell-free, Macaca mulatta. As to conditions: rhesus monkey.
A short description of data set [9]: Kinetic solubility of the compound at pH 6.5. As to conditions: buffer, read-out: Kinetic_solubility. Type of data set: physicochemical.
Data set [10] in a line: Half life in human liver microsomes in presence of NADPH. Type of data set: ADME.
Data set [11] has as its system Liver microsome. In words: Prodrug conversion in human liver microsomes assessed as formation of MPC-3100. Type of data set: ADME.
The nature of data set [12]: Half life in simulated gastric fluid at pH 1.2 in presence of pepsin. Type of data set: ADME. As to conditions: simulated gastric fluid with pepsin.
Data set [13] can be described thus: Half life in human plasma. The class given is ADME, cell-free.
The test system of data set [14] is Plasma. In words: Prodrug conversion in mouse plasma assessed as formation of MPC-3100. Type of data set: ADME, cell-free.
The nature of data set [15]: Apparent permeability of the compound at pH 6.2. The class given is physicochemical. As to conditions: not told.
The subject of data set [16] is Mus musculus. Briefly: Toxicity in mouse xenografted with human NCI-N87 cells assessed as body weight loss at 265 mg/kg, po. As to conditions: in vivo. Type of data set: organism-based.
The test system of data set [17] is Liver. In words: Prodrug conversion in mouse liver microsomes assessed as formation of MPC-3100. Type of data set: ADME.
The subject of data set [18] is Mus musculus. Briefly: Cmax in mouse assessed as MPC-3100 at 265 mg/kg, po administered with 2% CMC by LC-ESI-MS/MS analysis. As to conditions: in vivo. Further details: dose 265 mg/kg, route oral. Type of data set: ADME, organism-based.
The nature of data set [19]: Half life in mouse plasma. The class given is ADME, cell-free.
The subject of data set [20] is Mus musculus. In words: AUC in mouse assessed as MPC-3100 at 265 mg/kg, po administered with 2% CMC by LC-ESI-MS/MS analysis. The class given is ADME, organism-based. As to conditions: in vivo.
Data set [21] is described as follows: Half life in simulated intestinal fluid at pH 6.8. Type of data set: ADME.
Data set [22] is described as follows: Half life in mouse liver microsomes in presence of NADPH. The class given is ADME.
The nature of data set [23]: Half life in human liver microsomes in absence of NADPH. The class given is ADME.
In data set [24] the test system is Mus musculus. Briefly: Oral bioavailability in mouse assessed as MPC-3100 at 265 mg/kg administered with 2% CMC by LC-ESI-MS/MS analysis. The class given is ADME, organism-based. As to conditions: in vivo.
The nature of data set [25]: Half life in phosphate buffer at pH 7.4. The class given is physicochemical.
The nature of data set [26]: Toxicity in po dosed nu+/- mouse. Type of data set: organism-based. As to conditions: in vivo.
The subject of data set [27] is Mus musculus. Briefly: Toxicity in nu+/- mouse assessed as mortality at 286 mg/kg, po. The class given is organism-based. As to conditions: in vivo.
The test system of data set [28] is NCI-N87. In words: Antitumor activity against human NCI-N87 cells xenografted in mouse assessed as tumor growth inhibition at 265 mg/kg, po. Type of data set: functional, organism-based.
Data set [29] is described as follows: Cmax in mouse at 200 mg/kg, po administered with 40% captisol by LC-ESI-MS/MS analysis. The class given is ADME, organism-based. Further details: dose 200 mg/kg, route oral. As to conditions: in vivo.
The nature of data set [30]: Oral bioavailability in mouse at 200 mg/kg administered with 2% CMC by LC-ESI-MS/MS analysis. Type of data set: ADME, organism-based. As to conditions: in vivo.
Data set [31] can be described thus: AUC in mouse at 200 mg/kg, po administered with 2% CMC by LC-ESI-MS/MS analysis. The class given is ADME, organism-based. As to conditions: in vivo.
Data set [32] is described as follows: Tmax in mouse at 200 mg/kg, po administered with 40% captisol by LC-ESI-MS/MS analysis. As to conditions: in vivo. The class given is ADME, organism-based.
Data set [33] is described as follows: Drug level in simulated intestinal fluid treated with MPC-0767 at pH 6.8 in presence of pancreatin. Type of data set: physicochemical. As to conditions: simulated gi fluid.
Data set [34] concerns Liver microsome. Briefly: Drug level in human liver microsomes treated with MPC-0767. Type of data set: ADME.
The test system of data set [35] is Plasma. Briefly: Drug level in mouse plasma treated with MPC-0767. Type of data set: ADME, cell-free.
Data set [36] can be described thus: Cmax in mouse at 200 mg/kg, po administered with 2% CMC by LC-ESI-MS/MS analysis. Further details: dose 200 mg/kg, route oral. As to conditions: in vivo. Type of data set: ADME, organism-based.
The test system of data set [37] is NCI-N87. Briefly: Antitumor activity against human NCI-N87 cells xenografted in mouse assessed as tumor growth inhibition at 200 mg/kg, po relative to control. As to conditions: read-out: TGI. Type of data set: functional.
A short description of data set [38]: AUC in mouse at 200 mg/kg, po administered with 40% captisol by LC-ESI-MS/MS analysis. Type of data set: ADME, organism-based. As to conditions: in vivo.
A short description of data set [39]: Aqueous solubility of the compound in simulated intestinal fluid at pH 6.8. Type of data set: physicochemical.
A short description of data set [40]: Tmax in mouse at 200 mg/kg, po administered with 2% CMC by LC-ESI-MS/MS analysis. As to conditions: in vivo. The class given is ADME, organism-based.
The nature of data set [41]: Oral bioavailability in mouse at 200 mg/kg administered with 40% captisol by LC-ESI-MS/MS analysis. Type of data set: ADME, organism-based. As to conditions: in vivo.
In data set [42] the test system is Liver. In words: Drug level in mouse liver microsomes treated with MPC-0767. Type of data set: ADME.

As usually defined, the solubility is the concentration that dissolves in the medium under given conditions. As a reminder, the Tmax is the time at which the peak concentration occurs. A word on the half-life: it is how long it takes for the measured level to halve. The Papp is a coefficient for how fast a substance crosses the barrier. The term Cmax denotes the maximum level reached in the sampled fluid or tissue. The AUC is the area under the concentration-time curve, a measure of exposure. One may read the bioavailability as the share of a dose that reaches the circulation, judged against a reference dose that is usually intravenous.

Converted amounts (≈) assume the structure as drawn. The source made the active and inactive calls. The rule behind the calls is not given here. Bounds are passed on as bounds.

Turning to `C[C@H](OC(=O)[C@@H](N)CCCCN)C(=O)N1CCC(CCn2c(Sc3cc4c(cc3Br)OCO4)nc3c(N)ncnc32)CC1`, the F in the data set with Mus musculus [1] was above 40%. Besides, the TGI in the data set on NCI-N87 [2] is above 40%. This compound came in with a solubility in [3] above 1000 µg/mL.

As to `CS(=O)(=O)O.C[C@H](N)C(=O)O[C@@H](C)C(=O)N1CCC(CCn2c(Sc3cc4c(cc3Br)OCO4)nc3c(N)ncnc32)CC1`, in the data set with Mus musculus [4], the Tmax stood at 1 h. In addition, the half-life is above 4 h in [5]; below 2 min in data set [6]; 0.367 h in data set [7]; 5 h in [8]; 2 min in data set [10]; above 4 h in data set [12]. Further, the half-life in data set [13] was 2.48 h; in data set [19], below 2 min; in [21], 2.88 h; in data set [22], below 2 min; in data set [23] it was 2 min; in [25], 2.42 h. Further, the solubility kinetic in data set [9] was determined as 536 µg/mL. Moreover, the Drug metabolism entry in the data set on Liver microsome [11], in the data set with Plasma [14] and in the data set with Liver [17] was “metabolite_detected” each time. The compound further registered a solubility in data set [3] above 1000 µg/mL. For the same compound, the Papp in data set [15] is 2.7 ×10⁻⁶ cm/s. Further, the Activity result in the data set with Mus musculus [16] is listed as “Non-toxic”. In the data set with Mus musculus [18], the Cmax came out at 21562 ng/mL. Further, the AUC in the data set with Mus musculus [20] came out at 94194 ng·h/mL. Further, the F in the data set on Mus musculus [24] amounted to 56%.

In data set [26], `C[C@H](N)C(=O)O[C@@H](C)C(=O)N1CCC(CCn2c(Sc3cc4c(cc3Br)OCO4)nc3c(N)ncnc32)CC1.Cl.Cl` showed an MTD of 252 mg/kg.

Consider `C[C@H](OC(=O)[C@@H](N)CCCCN)C(=O)N1CCC(CCn2c(Sc3cc4c(cc3Br)OCO4)nc3c(N)ncnc32)CC1.Cl.Cl.Cl`, for which, in the data set on Mus musculus [27], the Activity result was “Toxic”.

For the compound `C[C@H](N)C(=O)O[C@@H](C)C(=O)N1CCC(CCn2c(Sc3cc4c(cc3Br)OCO4)nc3c(N)ncnc32)CC1`, in the data set with NCI-N87 [28], the TGI entry was “Active”.

Take `C[C@H](O)C(=O)N1CCC(CCn2c(Sc3cc4c(cc3Br)OCO4)nc3c(N)ncnc32)CC1`: the figures for the Cmax in data set [29] and in data set [36] were 24900 ng/mL and 7370 ng/mL, respectively. Further, the figures for the bioavailability in [30] and in data set [41] were 21% and 67%, respectively. Besides, the AUC stood at 35100 ng·h/mL in data set [31] and 113000 ng·h/mL in data set [38]. In [9], the solubility kinetic is 10.2 µg/mL (≈ 18.6 µM). Also, the Tmax in [32] turned out to be 1 h; in data set [40] it was 0.3 h. Also, the Drug metabolism result (in data set [33]; with Liver microsome [34]; with Plasma [35]; in the data set on Liver [42]) was “metabolite_detected” each time. Moreover, the Papp in data set [15] came out at 420 ×10⁻⁶ cm/s. Besides, the inhibition in vivo at 200 mg/kg with NCI-N87 [37] was 46%. For the same compound, the solubility in data set [39] was 7.5 µg/mL (≈ 13.6 µM).

Values taken from ChEMBL document CHEMBL3632515, “Discovery of an L-alanine ester prodrug of the Hsp90 inhibitor, MPC-3100” (Bioorg Med Chem Lett, 2015).
